This is an account of results in US8304393B2, “Epithelial cell growth promoter” (Patent Technology Development Inc., priority 2004, dated 2012).

This test has as its system murine HBKs (hair bulb keratinocytes). The test is described as follows: HBK growth test (Example 5, AlamarBlue). The test is classed as cell-based, mouse. The settings on record: for cell growth effect as compared with that on the control: 4 days culture; for concentration at which significant difference from control could be noted: Dunnett's multiple comparison test, p<0.05. The source says:
The epithelial cell growth promoters of Examples 1 and 2 and Reference Examples 1 and 2 were subjected to a cell growth test for murine HBKs, respectively. The following culture medium and test medium were used.
DMEM (product code “D-5523”, a product by Sigma)
FBS (product code “10100756”, a product by Cansera International Inc.)
• 10% Penicillin/streptomycin (product code “15140-122”, a product by GIBCO) • 1% (b) Test medium MCDB153 (product code “M7403”, a product by Sigma) Insulin (product code “16634”, bovine, a product by Sigma) • 5 μg/ml Apo-transferrin (product code “T1147”, human, a product by Sigma) • 10 μg/ml EGF (product code “01-101”, murine, a product by Upstate Biotechnology Inc.) • […] BPE (product code “13028-014”, bovine pituitary extract, a product by GIBCO) • 35 μg/ml Water-soluble hydrocortisone (product code “174-00”, a product by NACALAI TESQUE INC.) • 0.5 μg/ml Ethanolamine (product code “012-12455”, a product of Wako Pure Chemical Industries Ltd.) • 100 μM o-phosphorylethanolamine (product code “P0503”, a product by Sigma) • 100 μM
The skin of a 5 day-old mouse was cut with a scalpel into strips of approximately 2-mm-wide skin slices, which were in turn immersed in a solution prepared by dissolving dispase (lot No. 0101, a product by GODO SHUSEI CO.) at a proportion of 500 U/ml in DMEM (product code “D-5523”, a product by Sigma) containing FBS (product code “10100756”, a product by Cansera International Inc.) in a concentration of 5%, and then kept standing at 4° C. for 16 hours. Subsequently, the epidermis was ablated and removed with tweezers from the skin slices to collect only dermis tissues. The thus obtained dermis tissues were immersed in PBS (−) (product code “P-4417”, a product by Sigma) and cut into strips with opthalmological scissors. The thus obtained strips were immersed in a solution prepared by dissolving collagenase (lot No. 001014W, a product by Nitta Gelatin Inc.) in a concentration of 0.2% in DMEM containing FBS in a concentration of 5%, and then digested at 37° C. for 1 hour. After centrifugation at 1000 rpm for 5 minutes, the supernatant was removed, and the residue was supplemented with PBS (−) and gently pipetted to prepare a dermis suspension.
For separating dermal fibroblasts and hair bulbs, the dermis suspension was kept standing for 15 minutes to precipitate only the hair bulbs. The hair bulbs obtained by repeating the “standing to precipitation” procedure three times were immersed in a solution prepared by dissolving, in 2.65 mM EDTA aqueous solution, trypsin in a concentration of 0.25%, and then treated at 37° C. for 5 minutes to prepare a dispersion solution of HBKs.
Next, this dispersion solution was centrifuged at 1000 rpm for 5 minutes. After this centrifugation, the supernatant was removed. The thus obtained HBKs were dispersed in a culture medium, then inoculated into a collagen-coated 96-well microplate, and cultured at 37° C. in an atmosphere containing 5% CO2.
The isoleucyl-glycyl-serine (hereinafter, abbreviated to IGS), prolyl-isoleucyl-glycine (hereinafter, abbreviated to PIG), prolyl-isoleucyl-glycyl-serine (SEQ ID NO: 2) (hereinafter, abbreviated to PIGS), and glycyl-prolyl-isoleucyl-glycine (SEQ ID NO: 1) (hereinafter, abbreviated to GPIG) obtained in Examples 1 and 2 and Reference Examples 1 and 2 were separately dissolved in a test media to prepare 6 types of sample solutions each in a concentration of 0.3 μM, 1 μM, 3 μM, 10 μM, 30 μM, and 100 μM. Only a test medium was used as a control.
After 24 hours from the inoculation of the cells, the culture solutions were removed, and the cultured cells were washed with an MCDB153 solution. Each of the above-mentioned sample solutions was added to the cultured cell at 100 μl/well and cultured at 37° C. in an atmosphere containing 5% CO2. […]

Each structure is given as a SMILES string.

For `CC[C@H](C)[C@H](NC(=O)[C@@H]1CCCN1C(=O)CN)C(=O)NCC(=O)O` (racemic) [GPIG, glycyl-prolyl-isoleucyl-glycine], the “concentration at which significant difference from control could be noted” value was at least 0.3 µM. In addition, the “cell growth effect as compared with that on the control” value (0.3 μM) worked out at 105%. Moreover, the “cell growth effect as compared with that on the control” value (1 μM) amounted to 108%. Moreover, the “cell growth effect as compared with that on the control” value (3 μM) stood at 118%. Moreover, where the note is “10 μM”, the “cell growth effect as compared with that on the control” value was 133%. Moreover, where the note is “30 μM”, the “cell growth effect as compared with that on the control” value was 134%. In addition, where the note is “100 μM”, the “cell growth effect as compared with that on the control” value came to 138%.
Regarding `CC[C@H](C)[C@H](N)C(=O)NCC(=O)N[C@@H](CO)C(=O)O` (racemic) [IGS, isoleucyl-glycyl-serine], the “concentration at which significant difference from control could be noted” value was at least 10 µM. Also, the “cell growth effect as compared with that on the control” value (0.3 μM) is 98%. Also, the “cell growth effect as compared with that on the control” value (1 μM) is on record as 103%. Moreover, the “cell growth effect as compared with that on the control” value (3 μM) stood at 106%. Besides, the “cell growth effect as compared with that on the control” value (10 μM) was 124%. For the same compound, the “cell growth effect as compared with that on the control” value (30 μM) worked out at 134%. Besides, the “cell growth effect as compared with that on the control” value (100 μM) was found to be 133%.
As to `CC[C@H](C)[C@H](NC(=O)[C@@H]1CCCN1)C(=O)NCC(=O)O` (racemic) [PIG, prolyl-isoleucyl-glycine], the “concentration at which significant difference from control could be noted” value is at least 1 µM. For the same compound, for the setting “0.3 μM”, the “cell growth effect as compared with that on the control” value was determined as 101%. Further, the “cell growth effect as compared with that on the control” value (1 μM) is 103%. Further, under “3 μM”, the “cell growth effect as compared with that on the control” value turned out to be 113%. Further, for the setting “10 μM”, the “cell growth effect as compared with that on the control” value is reported as 132%. Moreover, under “30 μM”, the “cell growth effect as compared with that on the control” value is recorded as 131%. Also, for the setting “100 μM”, the “cell growth effect as compared with that on the control” value amounted to 134%.
As for `CC[C@H](C)[C@H](NC(=O)[C@@H]1CCCN1)C(=O)NCC(=O)N[C@@H](CO)C(=O)O` (racemic) [PIGS, prolyl-isoleucyl-glycyl-serine], the “concentration at which significant difference from control could be noted” value was at least 3 µM. Under “0.3 μM”, the “cell growth effect as compared with that on the control” value was found to be 104%. Further, the “cell growth effect as compared with that on the control” value (1 μM) worked out at 103%. Moreover, the “cell growth effect as compared with that on the control” value (3 μM) came to 108%. In addition, the “cell growth effect as compared with that on the control” value (10 μM) worked out at 110%. Besides, the “cell growth effect as compared with that on the control” value (30 μM) was 127%. For the same compound, for the setting “100 μM”, the “cell growth effect as compared with that on the control” value is given as 133%.
